Assay results as given in ChEMBL document CHEMBL1133984, “Synthesis, topoisomerase I inhibition and antitumor cytotoxicity of 2,2':6',2"-, 2,2':6',3"- and 2,2':6',4"-terpyridine derivatives” (2001).
In brackets after ≈: the same amount, converted by molar mass.

Experiments:
Format in all cases: functional
Conditions in all cases: Homo sapiens
RPTEC = experiment: Antitumor cytotoxic activity against RPTEC cell line was determined
SK-MEL-2 = experiment: Antitumor cytotoxic activity against SK-MEL-2 cell line was determined
PC-3 = experiment: Antitumor cytotoxic activity against PC-3 cell line was determined
A498 = experiment: Antitumor cytotoxic activity against A-498 cell line was determined
SK-OV-3 = experiment: Antitumor cytotoxic activity against SK-OV-3 cell line was determined
A549 = experiment: Antitumor cytotoxic activity against A-549 cell line was determined
HCT-15 = experiment: Antitumor cytotoxic activity against HCT-15 cell line was determined
HT-29 = experiment: Antitumor cytotoxic activity against HT-29 cell line was determined

`c1ccc(-c2cccc(-c3ccccn3)n2)nc1` [TERPYRIDINE] was tested, and the GI50 (RPTEC) was 14 ng/mL (≈ 0.06 µM), the GI50 (SK-MEL-2) was 100 ng/mL (≈ 0.429 µM) and the GI50 (PC-3) was 0.73 ng/mL (≈ 0.00313 µM). For the same compound, the GI50 (A498) was 0.097 ng/mL (≈ 0.000416 µM), the GI50 (SK-OV-3) was 72 ng/mL (≈ 0.309 µM) and the GI50 (A549) was 90 ng/mL (≈ 0.386 µM). For the same compound, the GI50 (HCT-15) was 71 ng/mL (≈ 0.304 µM) and the GI50 (HT-29) was 2.6 ng/mL (≈ 0.0111 µM).

For `c1ccc(-c2cc(-c3cccs3)cc(-c3ccncc3)n2)nc1`, the GI50 (RPTEC) was 650 ng/mL (≈ 2.06 µM), the GI50 (SK-MEL-2) was 35200 ng/mL (≈ 112 µM) and the GI50 (PC-3) was 220 ng/mL (≈ 0.698 µM). For the same compound, the GI50 (A498) was 840 ng/mL (≈ 2.66 µM), the GI50 (SK-OV-3) was 48300 ng/mL (≈ 153 µM) and the GI50 (A549) was 36200 ng/mL (≈ 115 µM). For the same compound, the GI50 (HCT-15) was 15100 ng/mL (≈ 47.9 µM) and the GI50 (HT-29) was 520 ng/mL (≈ 1.65 µM).

`c1ccc(-c2cc(-c3cccs3)cc(-c3cccnc3)n2)nc1` showed a GI50 (RPTEC) of 56 ng/mL (≈ 0.178 µM), a GI50 (SK-MEL-2) of 77700 ng/mL (≈ 246 µM) and a GI50 (PC-3) of 31 ng/mL (≈ 0.0983 µM). For the same compound, the GI50 (A498) was 2.9 ng/mL (≈ 0.00919 µM), the GI50 (SK-OV-3) was 52000 ng/mL (≈ 165 µM) and the GI50 (A549) was 78900 ng/mL (≈ 250 µM). For the same compound, the GI50 (HCT-15) was 56100 ng/mL (≈ 178 µM) and the GI50 (HT-29) was 190 ng/mL (≈ 0.602 µM).

In the case of `c1ccc(-c2cc(-c3ccsc3)cc(-c3cccnc3)n2)nc1`, the GI50 (RPTEC) is reported as 310 ng/mL (≈ 0.983 µM), the GI50 (SK-MEL-2) is reported as > 100000 ng/mL and the GI50 (PC-3) is reported as 54 ng/mL (≈ 0.171 µM). The GI50 (A498) was 640 ng/mL (≈ 2.03 µM), the GI50 (SK-OV-3) was > 100000 ng/mL and the GI50 (A549) was > 100000 ng/mL. The GI50 (HCT-15) was > 100000 ng/mL and the GI50 (HT-29) was 360 ng/mL (≈ 1.14 µM).

In the case of `COc1cccc2c1C(=O)c1c(O)c3c(c(O)c1C2=O)C[C@@](O)(C(=O)CO)C[C@@H]3O[C@H]1C[C@H](N)[C@H](O)[C@H](C)O1` [DOXORUBICIN], the GI50 (RPTEC) is reported as 72 ng/mL (≈ 0.132 µM), the GI50 (SK-MEL-2) is reported as 59 ng/mL (≈ 0.109 µM) and the GI50 (PC-3) is reported as 29 ng/mL (≈ 0.0534 µM). For the same compound, the GI50 (A498) was 6.4 ng/mL (≈ 0.0118 µM), the GI50 (SK-OV-3) was 73 ng/mL (≈ 0.134 µM) and the GI50 (A549) was 92 ng/mL (≈ 0.169 µM). For the same compound, the GI50 (HCT-15) was 71 ng/mL (≈ 0.131 µM) and the GI50 (HT-29) was 4.6 ng/mL (≈ 0.00846 µM).

For `c1ccc(-c2cc(-c3cccnc3)nc(-c3ccccn3)c2)cc1`, the GI50 (RPTEC) was 360 ng/mL (≈ 1.16 µM), the GI50 (SK-MEL-2) was 89200 ng/mL (≈ 288 µM) and the GI50 (PC-3) was 280 ng/mL (≈ 0.905 µM). The GI50 (A498) was 74 ng/mL (≈ 0.239 µM), the GI50 (SK-OV-3) was 49600 ng/mL (≈ 160 µM) and the GI50 (A549) was 44800 ng/mL (≈ 145 µM). It also gave a GI50 (HCT-15) of 40900 ng/mL (≈ 132 µM) and a GI50 (HT-29) of 330 ng/mL (≈ 1.07 µM).

Compound `c1ccc(-c2cc(-c3ccsc3)cc(-c3ccccn3)n2)nc1` has a GI50 (RPTEC) of 4.7 ng/mL (≈ 0.0149 µM), a GI50 (SK-MEL-2) of 890 ng/mL (≈ 2.82 µM) and a GI50 (PC-3) of 1.7 ng/mL (≈ 0.00539 µM). It also gave a GI50 (A498) of 0.097 ng/mL (≈ 0.000308 µM), a GI50 (SK-OV-3) of 100 ng/mL (≈ 0.317 µM) and a GI50 (A549) of 620 ng/mL (≈ 1.97 µM). It also gave a GI50 (HCT-15) of 290 ng/mL (≈ 0.919 µM) and a GI50 (HT-29) of 2.7 ng/mL (≈ 0.00856 µM).

`c1ccc(-c2cc(-c3ccco3)cc(-c3ccccn3)n2)nc1` showed a GI50 (RPTEC) of 4.1 ng/mL (≈ 0.0137 µM), a GI50 (SK-MEL-2) of 9900 ng/mL (≈ 33.1 µM) and a GI50 (PC-3) of 2.5 ng/mL (≈ 0.00835 µM). For the same compound, the GI50 (A498) was 0.064 ng/mL (≈ 0.000214 µM), the GI50 (SK-OV-3) was 130 ng/mL (≈ 0.434 µM) and the GI50 (A549) was 220 ng/mL (≈ 0.735 µM). It also gave a GI50 (HCT-15) of 100 ng/mL (≈ 0.334 µM) and a GI50 (HT-29) of 2.4 ng/mL (≈ 0.00802 µM).

With `c1ccc(-c2cc(-c3ccccn3)nc(-c3ccccn3)c2)cc1` the GI50 (RPTEC) was 27 ng/mL (≈ 0.0873 µM), the GI50 (SK-MEL-2) was 7500 ng/mL (≈ 24.2 µM) and the GI50 (PC-3) was 17 ng/mL (≈ 0.055 µM). For the same compound, the GI50 (A498) was 2.5 ng/mL (≈ 0.00808 µM), the GI50 (SK-OV-3) was 120 ng/mL (≈ 0.388 µM) and the GI50 (A549) was 560 ng/mL (≈ 1.81 µM). It also gave a GI50 (HCT-15) of 370 ng/mL (≈ 1.2 µM) and a GI50 (HT-29) of 1.4 ng/mL (≈ 0.00453 µM).

`c1ccc(-c2cc(-c3ccoc3)cc(-c3ccccn3)n2)nc1` was tested, and the GI50 (RPTEC) was 5.8 ng/mL (≈ 0.0194 µM), the GI50 (SK-MEL-2) was 330 ng/mL (≈ 1.1 µM) and the GI50 (PC-3) was 4.4 ng/mL (≈ 0.0147 µM). It also gave a GI50 (A498) of 0.032 ng/mL (≈ 0.000107 µM), a GI50 (SK-OV-3) of 600 ng/mL (≈ 2 µM) and a GI50 (A549) of 80 ng/mL (≈ 0.267 µM). It also gave a GI50 (HCT-15) of 60 ng/mL (≈ 0.2 µM) and a GI50 (HT-29) of 2.6 ng/mL (≈ 0.00869 µM).
